Measured values taken from PubChem BioAssay (NCI).
“And” between values parts separate entries of the source, which are not always exact repeats. Equal values may be shown once.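 Interpolation was linear, between the two tested concentrations surrounding the appropriate level; five concentrations were tested over 48 hours in 96-well plates. GI50 marks 50% less growth. The concentration for full growth arrest is given as TGI.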

Columns and labels:
Experiment in all cases: NCI tumour cell line growth inhibition, 48 h
[1] = system: RXF 393 renal
[2] = system: COLO 205 colon
[3] = system: IGROV1 ovarian
[4] = system: A498 renal
[5] = system: SF-295 CNS
[6] = system: NCI-H522 lung
[7] = system: KM12 colon
[8] = system: SF-539 CNS
[9] = system: NCI/ADR-RES ovarian
[10] = system: ACHN renal

SMILES	GI50 [1]	TGI [1]	GI50 [2]	TGI [2]	GI50 [3] [µM]	TGI [3]	GI50 [4]	TGI [4]	GI50 [5]	TGI [5] [µM]	GI50 [6]	TGI [6]	GI50 [7]	TGI [7]	GI50 [8]	TGI [8]	GI50 [9] [µM]	TGI [9] [µM]	GI50 [10]	TGI [10] [µM]
O=[N+]([O-])/C(=C/C=C/c1ccccc1)c1ccccc1	1.81 µM	3.84 µM	1.83 µM	3.35 µM	1.92	4.54 µM	3.78 µM	9.66 µM	2.56 µM	9.08	1.62 µM	4.08 µM	2.04 µM	4.29 µM	1.86 µM	3.61 µM	3.56	11.9	2.14 µM	5
O=C(Nc1ccc(-n2cc(-c3ccncc3)c(-c3ccc(Cl)c(O)c3)n2)cc1)c1ccc(Cl)c(Cl)c1			4.3 µM	> 100 µM	> 100	> 100 µM	35.7 µM	> 100 µM	1.01 µM	2.77	5.34 µM	> 100 µM	3.05 µM	> 100 µM	0.694 µM	> 100 µM	4.91	> 100	4.2 µM	> 100
CC(C)(C)c1cnc(CSc2cnc(NC(=O)C3CCNCC3)s2)o1	0.124 µM and 0.157 µM	0.354 µM and 0.509 µM	0.0687 µM and 0.0561 µM	0.207 µM and 0.24 µM	0.204	4.28 µM and > 10 µM	0.223 µM and 0.23 µM	0.598 µM and 0.714 µM	0.185 µM and 0.602 µM	> 10	0.189 µM and 0.175 µM	0.494 µM and 0.565 µM	0.14 µM and 0.166 µM	5.35 µM and > 10 µM	0.243 µM and 0.179 µM	0.67 µM and 0.513 µM	45.5	> 100	2.12 µM and 2.14 µM	> 52.1
COc1ccc(C2=NOC3=c4ccccc4=CSC3=C2c2ccccc2)cc1	22.2 µM	63.7 µM	48.7 µM	> 100 µM	45.8	> 100 µM		> 100 µM	48.9 µM	> 100	> 100 µM	> 100 µM	57.7 µM	> 100 µM	13.3 µM	37.5 µM	41.7	> 100	73.7 µM	> 100
COc1cc(C(=O)/C=C/c2c(C)n([O-])c3ccc(Cl)cc3[n+]2=O)cc(OC)c1OC	3.37 µM	91 µM	1.53 µM	4.54 µM	9.07	> 100 µM	0.208 µM	41 µM	99.4 µM	> 100	1.12 µM	2.8 µM	23.2 µM	> 100 µM	11.2 µM	27.4 µM	4.89	35.8	4.37 µM	18
OCCN1CCCN(CCCN2c3ccccc3Sc3ccc(C(F)(F)F)cc32)CC1	2.59 µM	11.2 µM	1.94 µM	3.68 µM	2.68	7.22 µM	1.69 µM	5.63 µM	1.76 µM	3.74	3.23 µM	14 µM	2.27 µM	4.69 µM	1.67 µM	3.12 µM	3.57	14.7	3.56 µM	13.4
CC1(C)N=C(N)N=C(N)N1c1ccc(CCCCCCc2ccc(S(=O)(=O)F)cc2)cc1		> 33.1 µM		12.8 µM		30.8 µM				22		20.2 µM						70.9		14.4
C=C1CCC2C(C)(CO)C(O)CCC2(C)C1C/C=C1\C(=O)OCC1O (configuration not stated)		33.8 µM		27.9 µM		57.4 µM		93.1 µM		52.5		28.4 µM		27.2 µM		44.3 µM		> 100		> 100
C=C(c1ccc(C(=O)NCCCn2ccnc2)cc1)c1cc2c(cc1C)C(C)(C)CCC2(C)C	1.71 µM	4.71 µM	1.12 µM	3.28 µM	1.92	> 32 µM	25.2 µM	> 100 µM	1.31 µM	18.7	0.123 µM	3.72 µM	0.37 µM	> 50.6 µM	0.0565 µM	2.17 µM	0.0807	> 36.1	2.16 µM	14.1
CC(C)(C)OC(=O)CC(S(=O)(=O)c1ccccc1)S(=O)(=O)c1ccccc1	1.8 µM	3.31 µM	1.89 µM	3.32 µM	18.5	38.5 µM	13.2 µM	26.4 µM	> 100 µM	> 100	1.65 µM	3.53 µM			17.4 µM	33.1 µM	17.4	37.8	1.75 µM	3.19
